Test results reported in the supplement of paper PMC13380429.

Key:
Conditions in all cases: 72 h
Caco-2 [1] = assay: relative viability EC50 (midpoint between 100% and the lowest measured viability); higher = less toxic
HepG2 [2] = assay: as above
Vero E6 [3] = assay: as above
U2OS [4] = assay: as above
Calu-3 [5] = assay: as above
Caco-2 [6] = assay: drug sensitivity score (DSS) for viability; higher = more toxic; extreme values may be limits of the assay
HepG2 [7] = assay: as above
Vero E6 [8] = assay: as above
U2OS [9] = assay: as above
Calu-3 [10] = assay: as above
Caco-2 [11] = assay: cell viability relative to DMSO; higher = less toxic
HepG2 [12] = assay: as above
Vero E6 [13] = assay: as above
U2OS [14] = assay: as above
Calu-3 [15] = assay: as above

In the case of `CCN1CCCC1CNC(=O)c1cc(S(=O)(=O)CC)c(N)cc1OC` (stereo not given) [amisulpride], the “relative viability EC50” value (Caco-2 [1]) was over 10 µM, the “relative viability EC50” value (HepG2 [2]) was over 10 µM and the “relative viability EC50” value (Vero E6 [3]) was over 10 µM. The “relative viability EC50” value (U2OS [4]) was over 10 µM, the “relative viability EC50” value (Calu-3 [5]) was over 10 µM and the drug sensitivity score (Caco-2 [6]) was 0. It also gave a drug sensitivity score (HepG2 [7]) of 0, a drug sensitivity score (Vero E6 [8]) of 0 and a drug sensitivity score (U2OS [9]) of 0. The drug sensitivity score (Calu-3 [10]) was 0, the cell viability (Caco-2 [11]; 1 nM) was 98.8% and the cell viability (Caco-2 [11]; 10 nM) was 88.6%. For the same compound, the cell viability (Caco-2 [11]; 100 nM) was 96.7%, the cell viability (Caco-2 [11]; 1000 nM) was 97.1% and the cell viability (Caco-2 [11]; 10000 nM) was 96.1%. For the same compound, the cell viability (HepG2 [12]; 1 nM) was 104%, the cell viability (HepG2 [12]; 10 nM) was 104% and the cell viability (HepG2 [12]; 100 nM) was 94.6%. It also gave a cell viability (HepG2 [12]; 1000 nM) of 99.3%, a cell viability (HepG2 [12]; 10000 nM) of 102% and a cell viability (Vero E6 [13]; 1 nM) of 98.6%. It also gave a cell viability (Vero E6 [13]; 10 nM) of 106%, a cell viability (Vero E6 [13]; 100 nM) of 99.4% and a cell viability (Vero E6 [13]; 1000 nM) of 98.5%. The cell viability (Vero E6 [13]; 10000 nM) was 98.8%, the cell viability (U2OS [14]; 1 nM) was 103% and the cell viability (U2OS [14]; 10 nM) was 99.9%. The cell viability (U2OS [14]; 100 nM) was 102%, the cell viability (U2OS [14]; 1000 nM) was 98.5% and the cell viability (U2OS [14]; 10000 nM) was 103%. For the same compound, the cell viability (Calu-3 [15]; 1 nM) was 96.4%, the cell viability (Calu-3 [15]; 10 nM) was 103% and the cell viability (Calu-3 [15]; 100 nM) was 99.2%. It also gave a cell viability (Calu-3 [15]; 1000 nM) of 104% and a cell viability (Calu-3 [15]; 10000 nM) of 103%.
With `N#C[C@H](O[C@@H]1O[C@H](CO[C@@H]2O[C@H](CO)[C@@H](O)[C@H](O)[C@H]2O)[C@@H](O)[C@H](O)[C@H]1O)c1ccccc1` [amygdalin] the “relative viability EC50” value (Caco-2 [1]) was over 10 µM, the “relative viability EC50” value (HepG2 [2]) was over 10 µM and the “relative viability EC50” value (Vero E6 [3]) was over 10 µM. For the same compound, the “relative viability EC50” value (U2OS [4]) was over 10 µM, the “relative viability EC50” value (Calu-3 [5]) was over 10 µM and the drug sensitivity score (Caco-2 [6]) was 0. The drug sensitivity score (HepG2 [7]) was 0, the drug sensitivity score (Vero E6 [8]) was 0 and the drug sensitivity score (U2OS [9]) was 0. For the same compound, the drug sensitivity score (Calu-3 [10]) was 0, the cell viability (Caco-2 [11]; 1 nM) was 98.4% and the cell viability (Caco-2 [11]; 10 nM) was 104%. The cell viability (Caco-2 [11]; 100 nM) was 110%, the cell viability (Caco-2 [11]; 1000 nM) was 92.8% and the cell viability (Caco-2 [11]; 10000 nM) was 104%. The cell viability (HepG2 [12]; 1 nM) was 100%, the cell viability (HepG2 [12]; 10 nM) was 98.8% and the cell viability (HepG2 [12]; 100 nM) was 104%. It also gave a cell viability (HepG2 [12]; 1000 nM) of 101%, a cell viability (HepG2 [12]; 10000 nM) of 96.6% and a cell viability (Vero E6 [13]; 1 nM) of 101%. The cell viability (Vero E6 [13]; 10 nM) was 103%, the cell viability (Vero E6 [13]; 100 nM) was 96% and the cell viability (Vero E6 [13]; 1000 nM) was 95.5%. The cell viability (Vero E6 [13]; 10000 nM) was 102%, the cell viability (U2OS [14]; 1 nM) was 96.9% and the cell viability (U2OS [14]; 10 nM) was 105%. It also gave a cell viability (U2OS [14]; 100 nM) of 100%, a cell viability (U2OS [14]; 1000 nM) of 104% and a cell viability (U2OS [14]; 10000 nM) of 101%. For the same compound, the cell viability (Calu-3 [15]; 1 nM) was 99.2%, the cell viability (Calu-3 [15]; 10 nM) was 105% and the cell viability (Calu-3 [15]; 100 nM) was 93.3%. The cell viability (Calu-3 [15]; 1000 nM) was 109% and the cell viability (Calu-3 [15]; 10000 nM) was 107%.
In the case of `O=C1NC(=O)c2c1c1c3ccccc3[nH]c1c1[nH]c3ccccc3c21` [arcyriaflavin-a], the “relative viability EC50” value (Caco-2 [1]) was over 10 µM, the “relative viability EC50” value (HepG2 [2]) was 0.158 µM and the “relative viability EC50” value (Vero E6 [3]) was over 10 µM. For the same compound, the “relative viability EC50” value (U2OS [4]) was over 10 µM, the “relative viability EC50” value (Calu-3 [5]) was over 10 µM and the drug sensitivity score (Caco-2 [6]) was 0.3. The drug sensitivity score (HepG2 [7]) was 12.6, the drug sensitivity score (Vero E6 [8]) was 0 and the drug sensitivity score (U2OS [9]) was 0. It also gave a drug sensitivity score (Calu-3 [10]) of 0, a cell viability (Caco-2 [11]; 1 nM) of 98.1% and a cell viability (Caco-2 [11]; 10 nM) of 107%. For the same compound, the cell viability (Caco-2 [11]; 100 nM) was 99.9%, the cell viability (Caco-2 [11]; 1000 nM) was 98.9% and the cell viability (Caco-2 [11]; 10000 nM) was 85.4%. It also gave a cell viability (HepG2 [12]; 1 nM) of 91.7%, a cell viability (HepG2 [12]; 10 nM) of 101% and a cell viability (HepG2 [12]; 100 nM) of 86.3%. For the same compound, the cell viability (HepG2 [12]; 1000 nM) was 43.3%, the cell viability (HepG2 [12]; 10000 nM) was 47.4% and the cell viability (Vero E6 [13]; 1 nM) was 103%. It also gave a cell viability (Vero E6 [13]; 10 nM) of 103%, a cell viability (Vero E6 [13]; 100 nM) of 99.5% and a cell viability (Vero E6 [13]; 1000 nM) of 92.1%. For the same compound, the cell viability (Vero E6 [13]; 10000 nM) was 91.7%, the cell viability (U2OS [14]; 1 nM) was 104% and the cell viability (U2OS [14]; 10 nM) was 99.8%. The cell viability (U2OS [14]; 100 nM) was 101%, the cell viability (U2OS [14]; 1000 nM) was 96.9% and the cell viability (U2OS [14]; 10000 nM) was 93.7%. For the same compound, the cell viability (Calu-3 [15]; 1 nM) was 105%, the cell viability (Calu-3 [15]; 10 nM) was 112% and the cell viability (Calu-3 [15]; 100 nM) was 95.6%. The cell viability (Calu-3 [15]; 1000 nM) was 104% and the cell viability (Calu-3 [15]; 10000 nM) was 106%.
